# Results published in patent US11306092B2, “Amino indole compounds useful as TLR inhibitors” (BRISTOL-MYERS SQUIBB COMPANY, priority 2017, dated 2022).
# Assays:
# Assay type in all cases: cell-based
# human TLR7 = molecular target: T1, human TLR7 (Homo sapiens, UniProt Q9NYK1); assay: TLR7 inhibition reporter assay (HEK-Blue SEAP reporter); settings: HEK-Blue cells overexpressing human TLR7; gardiquimod 7.5 μM; 22 hour incubation
# T1 construct: host or cells: HEK-Blue cells
# T1 sequence (Q9NYK1 27-1049): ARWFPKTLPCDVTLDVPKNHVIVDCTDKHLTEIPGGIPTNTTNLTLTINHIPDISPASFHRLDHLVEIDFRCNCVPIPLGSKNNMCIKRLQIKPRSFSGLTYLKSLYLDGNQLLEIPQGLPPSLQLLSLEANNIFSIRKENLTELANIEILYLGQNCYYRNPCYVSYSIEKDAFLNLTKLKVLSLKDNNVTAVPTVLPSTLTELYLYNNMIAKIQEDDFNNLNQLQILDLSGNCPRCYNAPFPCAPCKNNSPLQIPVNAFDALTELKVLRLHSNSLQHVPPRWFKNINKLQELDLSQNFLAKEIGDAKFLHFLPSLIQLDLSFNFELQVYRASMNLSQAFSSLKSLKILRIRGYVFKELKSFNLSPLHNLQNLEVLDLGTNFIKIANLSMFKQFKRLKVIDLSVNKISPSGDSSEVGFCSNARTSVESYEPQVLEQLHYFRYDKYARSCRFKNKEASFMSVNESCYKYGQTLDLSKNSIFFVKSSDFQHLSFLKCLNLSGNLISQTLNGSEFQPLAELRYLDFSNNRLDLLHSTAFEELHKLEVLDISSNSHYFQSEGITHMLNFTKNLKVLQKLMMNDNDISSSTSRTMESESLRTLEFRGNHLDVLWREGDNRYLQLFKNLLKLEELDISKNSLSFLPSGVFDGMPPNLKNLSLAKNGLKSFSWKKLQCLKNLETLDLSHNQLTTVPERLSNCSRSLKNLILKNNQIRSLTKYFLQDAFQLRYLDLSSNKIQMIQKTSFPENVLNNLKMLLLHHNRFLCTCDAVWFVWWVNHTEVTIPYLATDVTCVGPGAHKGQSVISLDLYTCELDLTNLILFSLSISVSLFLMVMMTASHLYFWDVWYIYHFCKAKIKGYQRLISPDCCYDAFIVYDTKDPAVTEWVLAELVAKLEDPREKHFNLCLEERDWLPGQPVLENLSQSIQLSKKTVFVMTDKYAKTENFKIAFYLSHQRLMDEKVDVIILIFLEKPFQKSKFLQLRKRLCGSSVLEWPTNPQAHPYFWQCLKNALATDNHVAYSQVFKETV
# Procedure, shortened: (§1)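 Human TLR7/8/9 HEK-Blue reporter lines; dose range 0.05 nM–50 μM; 30 min RT preincubation; stimulus gardiquimod 7.5 μM / R848 15.9 μM / ODN2006 5 nM respectively; 22 h, 37 °C; SEAP detected colorimetrically.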
# human TLR9 = molecular target: T2, human TLR9 (Homo sapiens, UniProt Q9NR96); assay: TLR9 inhibition reporter assay (HEK-Blue SEAP reporter); settings: HEK-Blue cells overexpressing human TLR9; ODN2006 5 nM; 22 hour incubation
# T2 construct: host or cells: HEK-Blue cells
# T2 sequence (Q9NR96 26-1032): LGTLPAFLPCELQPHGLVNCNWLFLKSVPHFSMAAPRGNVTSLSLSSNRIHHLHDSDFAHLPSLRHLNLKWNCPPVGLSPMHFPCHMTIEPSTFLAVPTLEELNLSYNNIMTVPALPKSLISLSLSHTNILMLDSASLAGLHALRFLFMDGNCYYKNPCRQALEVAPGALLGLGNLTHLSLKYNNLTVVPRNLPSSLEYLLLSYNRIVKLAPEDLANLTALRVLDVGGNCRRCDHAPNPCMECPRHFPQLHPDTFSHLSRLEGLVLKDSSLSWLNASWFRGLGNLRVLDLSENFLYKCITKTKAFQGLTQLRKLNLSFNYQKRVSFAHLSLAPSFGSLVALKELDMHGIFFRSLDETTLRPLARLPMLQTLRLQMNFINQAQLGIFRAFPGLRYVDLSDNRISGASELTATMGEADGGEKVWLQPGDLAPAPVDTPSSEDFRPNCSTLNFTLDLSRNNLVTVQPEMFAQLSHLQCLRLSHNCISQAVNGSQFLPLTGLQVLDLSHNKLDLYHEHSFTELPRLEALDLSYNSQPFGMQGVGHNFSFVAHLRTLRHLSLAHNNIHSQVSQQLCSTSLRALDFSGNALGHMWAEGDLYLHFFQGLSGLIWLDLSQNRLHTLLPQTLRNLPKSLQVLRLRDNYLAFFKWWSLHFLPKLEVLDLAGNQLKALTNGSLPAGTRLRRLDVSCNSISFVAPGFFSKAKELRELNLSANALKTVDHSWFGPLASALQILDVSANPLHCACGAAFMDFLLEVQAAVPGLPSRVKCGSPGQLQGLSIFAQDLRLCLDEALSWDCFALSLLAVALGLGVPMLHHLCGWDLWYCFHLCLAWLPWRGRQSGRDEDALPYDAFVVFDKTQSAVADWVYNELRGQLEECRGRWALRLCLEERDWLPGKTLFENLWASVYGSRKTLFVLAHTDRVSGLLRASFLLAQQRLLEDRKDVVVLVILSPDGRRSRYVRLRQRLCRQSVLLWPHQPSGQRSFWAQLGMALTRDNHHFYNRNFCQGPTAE
# Procedure, shortened: as §1
# human TLR8 = molecular target: T3, human TLR8 (Homo sapiens, UniProt Q9NR97); assay: TLR8 inhibition reporter assay (HEK-Blue SEAP reporter); settings: HEK-Blue cells overexpressing human TLR8; R848 15.9 μM; 22 hour incubation
# T3 construct: host or cells: HEK-Blue cells
# T3 sequence (Q9NR97 27-1041): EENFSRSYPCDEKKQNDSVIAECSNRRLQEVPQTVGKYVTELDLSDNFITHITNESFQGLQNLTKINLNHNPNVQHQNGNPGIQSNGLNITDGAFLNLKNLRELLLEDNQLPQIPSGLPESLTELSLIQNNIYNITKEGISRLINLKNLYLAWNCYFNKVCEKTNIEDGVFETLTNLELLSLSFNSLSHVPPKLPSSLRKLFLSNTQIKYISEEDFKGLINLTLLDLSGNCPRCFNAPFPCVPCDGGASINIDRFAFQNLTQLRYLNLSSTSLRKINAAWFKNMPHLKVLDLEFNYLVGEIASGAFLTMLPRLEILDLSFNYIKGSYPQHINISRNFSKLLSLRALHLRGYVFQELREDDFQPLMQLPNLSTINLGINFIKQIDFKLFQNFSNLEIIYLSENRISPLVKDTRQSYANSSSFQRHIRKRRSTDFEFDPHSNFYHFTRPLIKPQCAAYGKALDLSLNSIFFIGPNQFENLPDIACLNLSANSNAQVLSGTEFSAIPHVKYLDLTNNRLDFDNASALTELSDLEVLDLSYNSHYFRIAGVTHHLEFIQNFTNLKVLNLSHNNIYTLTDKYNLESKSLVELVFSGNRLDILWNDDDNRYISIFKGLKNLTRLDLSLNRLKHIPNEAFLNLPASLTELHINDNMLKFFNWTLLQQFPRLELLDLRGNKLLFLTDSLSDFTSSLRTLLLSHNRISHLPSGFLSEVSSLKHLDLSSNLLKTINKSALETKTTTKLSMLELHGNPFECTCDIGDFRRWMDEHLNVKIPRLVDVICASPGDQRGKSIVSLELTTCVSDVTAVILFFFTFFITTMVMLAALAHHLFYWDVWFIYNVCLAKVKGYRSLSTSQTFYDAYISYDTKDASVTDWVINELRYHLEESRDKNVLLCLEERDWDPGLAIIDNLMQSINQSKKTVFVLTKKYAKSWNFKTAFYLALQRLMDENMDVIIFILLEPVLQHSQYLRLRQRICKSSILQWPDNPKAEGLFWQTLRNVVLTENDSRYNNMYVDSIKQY
# Method: TLR7/8/9 Inhibition Reporter Assays
# HEK-Blue™-cells (Invivogen) overexpressing human TLR7, TLR8 or TLR9 receptors were used for screening inhibitors of these receptors using an inducible SEAP (secreted embryonic alkaline phosphatase) reporter gene under the control of the IFN-β minimal promoter fused to five NF-κB and AP-1-binding sites. Briefly, cells are seeded into Greiner 384 well plates (15000 cells per well for TLR7, 20,000 for TLR8 and 25,000 for TLR9) and then treated with test compounds in DMSO to yield a final dose response concentration range of 0.05 nM-50 μM. After a 30 minute compound pre-treatment at room temperature, the cells are then stimulated with a TLR7 ligand (gardiquimod at a final concentration of 7.5 μM), TLR8 ligand (R848 at a final concentration of 15.9 μM) or TLR9 ligand (ODN2006 at a final concentration of 5 nM) to activate NF-κB and AP-1 which induce the production of SEAP. After a 22 hour incubation at 37° C., 5% CO2, SEAP levels are determined with the addition of HEK-Blue™ Detection reagent (Invivogen), a cell culture medium that allows for detection of SEAP, according to manufacturer's specifications. The percent inhibition is determined as the % reduction in the HEK-Blue signal present in wells treated with agonist plus DMSO alone compared to wells treated with a known inhibitor.
SMILES,IC50 (human TLR7),IC50 (human TLR9),IC50 (human TLR8)
"CCN1CCC(OC2CCN(c3ccc4[nH]c(-c5ccc(OC)c(OC)c5)c(C(C)C)c4c3)CC2)CC1 [Example 190, 2-(3,4-dimethoxyphenyl)-5-(4-((1-ethylpiperidin-4-yl)oxy)piperidin-1-yl)-3-isopropyl-1H-indole]",33 nM,667 nM,35 nM
"Cc1cc(-c2[nH]c3ccc(N4CCC(N5CCN(C(C)C)CC5)C4=O)cc3c2C(C)C)cc(C)n1 (single isomer, unassigned) [Example 5, 1-(2-(2,6-dimethylpyridin-4-yl)-3-isopropyl-1H-indol-5-yl)-3-(4-isopropylpiperazin-1-yl) pyrrolidin-2-one]",6.4 nM,597 nM,5.8 nM
"COc1ccc(-c2[nH]c3ccc(N4CCC(OC5CCNCC5)CC4)cc3c2C(C)C)cc1OC [Example 133, 2-(3,4-dimethoxyphenyl)-3-isopropyl-5-(4-(piperidin-4-yloxy)piperidin-1-yl)-1H-indole]",16 nM,339 nM,55 nM
"COc1ccc(-c2[nH]c3ccc(NC4CCC(N5CCN(C6CCN(C)CC6)CC5)CC4)cc3c2C(C)C)cc1OC (stereo not drawn) [Example 62, 2-(3,4-dimethoxyphenyl)-3-isopropyl-N-(4-(4-(1-methylpiperidin-4-yl)piperazin-1-yl)cyclohexyl)-1H-indol-5-amine]",211 nM,323 nM,212 nM
"COc1ccc(-c2[nH]c3ccc(N4CCC(N5CCCNCC5)CC4)cc3c2C(C)C)cc1OC [Example 121, 5-(4-(1,4-diazepan-1-yl)piperidin-1-yl)-2-(3,4-dimethoxyphenyl)-3-isopropyl-1H-indole]",15 nM,993 nM,5.2 nM
"COc1ccc(-c2[nH]c3ccc(N4CCC(N)(CC#N)CC4)cc3c2C(C)C)cc1OC [Example 109, 2-(4-amino-1-(2-(3,4-dimethoxyphenyl)-3-isopropyl-1H-indol-5-yl)piperidin-4-yl)acetonitrile]",28 nM,15100 nM,211 nM
"C#CCCCN1CCN(c2ccc3[nH]c(-c4ccc(OC)c(OC)c4)c(C(C)C)c3c2)CC1 [Example 146, 2-(3,4-dimethoxyphenyl)-3-isopropyl-5-(4-(pent-4-yn-1-yl)piperazin-1-yl)-1H-indole]",206 nM,1950 nM,12 nM
"CCc1c(-c2ccc(OC)c(OC)c2)[nH]c2ccc(N3CCN(CCNC)CC3(C)C)cc12 [Example 150, 2-(4-(2-(3,4-dimethoxyphenyl)-3-ethyl-1H-indol-5-yl)-3,3-dimethylpiperazin-1-yl)-N-methylethan-1-amine]",360 nM,425 nM,102 nM
"CNCCNC1CCN(c2ccc3[nH]c(-c4ccc(OC)c(OC)c4)c(C(C)C)c3c2)CC1 [Example 72, N1-(1-(2-(3,4-dimethoxyphenyl)-3-isopropyl-1H-indol-5-yl)piperidin-4-yl)-N2-methylethane-1,2-diamine]",15 nM,1390 nM,2.8 nM
"COc1ccc(-c2[nH]c3ccc(N4CCC(N5CCOCC5)CC4)cc3c2C(C)C)cc1OC [Example 74, 4-(1-(2-(3,4-dimethoxyphenyl)-3-isopropyl-1H-indol-5-yl)piperidin-4-yl)morpholine]",62 nM,5210 nM,15 nM
"Cc1cc(-c2[nH]c3ccc(N4CCNC4=O)cc3c2C(C)C)ccn1 [Example 8, 1-(3-isopropyl-2-(2-methylpyridin-4-yl)-1H-indol-5-yl)imidazolidin-2-one]",92 nM,> 50000 nM,25 nM
"CNCCNC1CCN(c2ccc3[nH]c(-c4ccnc(C)c4)c(C(C)C)c3c2)C1=O (stereo not drawn) [Example 1, 1-(3-isopropyl-2-(2-methylpyridin-4-yl)-1H-indol-5-yl)-3-((2-(methylamino)ethyl)amino)pyrrolidin-2-one]",189 nM,488 nM,16 nM
